Reference: article doi:10.1101/2024.08.19.608619, “Discovery of potent SARS-CoV-2 nsp3 macrodomain inhibitors uncovers lack of translation to cellular antiviral response” (bioRxiv, 2024)
Where two headings read alike, the source gives them in different places.

Legend:
SARS-CoV-2 nsp3-mac1 [1] = target: T1, SARS-CoV-2 nsp3-mac1 (Severe acute respiratory syndrome coronavirus 2, UniProt P0DTD1); assay: biochemical; parameters: SARS-CoV-2 nsp3 macrodomain TR-FRET single point, per cent inhibition, n=2
SARS-CoV-2 nsp3-mac1 [2] = target: T1, SARS-CoV-2 nsp3-mac1; assay: biochemical; format: biochemical; details: SARS-CoV-2 nsp3 macrodomain TR-FRET single point, concentration 50.0 uM

O=C(Cc1ccon1)Nc1ncnc2[nH]cnc12 [ASAP-0000102]
inhibition at 50 µM (SARS-CoV-2 nsp3-mac1 [1]; read-out: perc_inhibition_mean, batch_name=ASAP-0000102-001): -1.61% | perc_inhibition_mean (SARS-CoV-2 nsp3-mac1 [2]): -1.615%

Cc1ncc(NCc2ncn(C)c2Cl)cc1C(N)=O [ASAP-0000103]
inhibition at 50 µM (SARS-CoV-2 nsp3-mac1 [1]; read-out: perc_inhibition_mean, batch_name=ASAP-0000103-001): 2.41% | perc_inhibition_mean (SARS-CoV-2 nsp3-mac1 [2]): 2.409%

Cc1ncc(NCc2cc3n(n2)CCOC3)cc1C(N)=O [ASAP-0000104]
inhibition at 50 µM (SARS-CoV-2 nsp3-mac1 [1]; read-out: perc_inhibition_mean, batch_name=ASAP-0000104-001): 0.46% | perc_inhibition_mean (SARS-CoV-2 nsp3-mac1 [2]): 0.46%

O=S(=O)(NC[C@@H]1CCCCO1)c1cn2c(n1)CCCC2 [ASAP-0000105]
inhibition at 50 µM (SARS-CoV-2 nsp3-mac1 [1]; read-out: perc_inhibition_mean, batch_name=ASAP-0000105-001): -5.39% | perc_inhibition_mean (SARS-CoV-2 nsp3-mac1 [2]): -5.386%

Cc1cc(NCc2csc(C)n2)ncn1 [ASAP-0000106]
inhibition at 50 µM (SARS-CoV-2 nsp3-mac1 [1]; read-out: perc_inhibition_mean, batch_name=ASAP-0000106-001): -4.64% | perc_inhibition_mean (SARS-CoV-2 nsp3-mac1 [2]): -4.644%

COc1ccccc1CN(C[C@@H]1CCCO1)c1ncnc2[nH]ccc12 [ASAP-0000107]
inhibition at 50 µM (SARS-CoV-2 nsp3-mac1 [1]; read-out: perc_inhibition_mean, batch_name=ASAP-0000107-001): 4.74% | perc_inhibition_mean (SARS-CoV-2 nsp3-mac1 [2]): 4.74%

Cc1cccc([C@@H]2CCCN2c2ncnc3[nH]ccc23)n1 [ASAP-0000108]
inhibition at 50 µM (SARS-CoV-2 nsp3-mac1 [1]; read-out: perc_inhibition_mean, batch_name=ASAP-0000108-001): 0.182% | perc_inhibition_mean (SARS-CoV-2 nsp3-mac1 [2]): 0.182%

CC(=O)Nc1ccc(S(=O)(=O)NNc2ncnc3sccc23)cc1 [ASAP-0000109]
inhibition at 50 µM (SARS-CoV-2 nsp3-mac1 [1]; read-out: perc_inhibition_mean, batch_name=ASAP-0000109-001): 5.36% | perc_inhibition_mean (SARS-CoV-2 nsp3-mac1 [2]): 5.363%

Cc1cccc(Cl)c1-n1sc(=O)n(CC2CC2)c1=O [ASAP-0000110]
inhibition at 50 µM (SARS-CoV-2 nsp3-mac1 [1]; read-out: perc_inhibition_mean, batch_name=ASAP-0000110-001): 51.9% | perc_inhibition_mean (SARS-CoV-2 nsp3-mac1 [2]): 51.933%

COc1cc(OC)cc(C(=O)N(CCC(=O)N2CCNCC2)Cc2cccc(Cl)c2)c1 [ASAP-0000111]
inhibition at 50 µM (SARS-CoV-2 nsp3-mac1 [1]; read-out: perc_inhibition_mean, batch_name=ASAP-0000111-001): -4.53% | perc_inhibition_mean (SARS-CoV-2 nsp3-mac1 [2]): -4.529%

CN(c1ncnc2[nH]ccc12)[C@H]1CCN(S(C)(=O)=O)C1 [ASAP-0000112]
inhibition at 50 µM (SARS-CoV-2 nsp3-mac1 [1]; read-out: perc_inhibition_mean, batch_name=ASAP-0000112-001): -0.371% | perc_inhibition_mean (SARS-CoV-2 nsp3-mac1 [2]): -0.371%

Cc1nn(C)c(NCc2nc(CO)cs2)c1C#N [ASAP-0000113]
inhibition at 50 µM (SARS-CoV-2 nsp3-mac1 [1]; read-out: perc_inhibition_mean, batch_name=ASAP-0000113-001): 2.1% | perc_inhibition_mean (SARS-CoV-2 nsp3-mac1 [2]): 2.1%

O=C(CCCc1cccnc1)Nc1cnc2[nH]ncc2c1 [ASAP-0000114]
inhibition at 50 µM (SARS-CoV-2 nsp3-mac1 [1]; read-out: perc_inhibition_mean, batch_name=ASAP-0000114-001): -3.65% | perc_inhibition_mean (SARS-CoV-2 nsp3-mac1 [2]): -3.651%

CNC(=O)c1ccnc(NC(=O)c2ccc(N3CCOCC3)cc2)c1 [ASAP-0000115]
inhibition at 50 µM (SARS-CoV-2 nsp3-mac1 [1]; read-out: perc_inhibition_mean, batch_name=ASAP-0000115-001): -12.3% | perc_inhibition_mean (SARS-CoV-2 nsp3-mac1 [2]): -12.336%

Cc1noc(CCCNC(=O)c2ncnc3[nH]ccc23)n1 [ASAP-0000116]
inhibition at 50 µM (SARS-CoV-2 nsp3-mac1 [1]; read-out: perc_inhibition_mean, batch_name=ASAP-0000116-001): -5.13% | perc_inhibition_mean (SARS-CoV-2 nsp3-mac1 [2]): -5.133%

COCc1cc(CNc2nc3[nH]cnc3c(=O)[nH]2)on1 [ASAP-0000117]
inhibition at 50 µM (SARS-CoV-2 nsp3-mac1 [1]; read-out: perc_inhibition_mean, batch_name=ASAP-0000117-001): 2.98% | perc_inhibition_mean (SARS-CoV-2 nsp3-mac1 [2]): 2.984%

Cc1cc(NCc2cnc3c(c2)NC(=O)CO3)cnc1C [ASAP-0000118]
inhibition at 50 µM (SARS-CoV-2 nsp3-mac1 [1]; read-out: perc_inhibition_mean, batch_name=ASAP-0000118-001): 4.53% | perc_inhibition_mean (SARS-CoV-2 nsp3-mac1 [2]): 4.531%

Cn1ncc2ncnc(NCc3ncccc3O)c21 [ASAP-0000119]
inhibition at 50 µM (SARS-CoV-2 nsp3-mac1 [1]; read-out: perc_inhibition_mean, batch_name=ASAP-0000119-001): -2.55% | perc_inhibition_mean (SARS-CoV-2 nsp3-mac1 [2]): -2.547%

O=C(OCc1ncccc1Cl)c1ncnc2[nH]ccc12 [ASAP-0000120]
inhibition at 50 µM (SARS-CoV-2 nsp3-mac1 [1]; read-out: perc_inhibition_mean, batch_name=ASAP-0000120-001): 5.06% | perc_inhibition_mean (SARS-CoV-2 nsp3-mac1 [2]): 5.063%

CC(C)n1ncnc1CNc1cc2c(=O)nc[nH]c2cn1 [ASAP-0000121]
inhibition at 50 µM (SARS-CoV-2 nsp3-mac1 [1]; read-out: perc_inhibition_mean, batch_name=ASAP-0000121-001): -1.49% | perc_inhibition_mean (SARS-CoV-2 nsp3-mac1 [2]): -1.486%

Cc1cncc(NCc2csc(-c3ccccn3)n2)c1 [ASAP-0000122]
inhibition at 50 µM (SARS-CoV-2 nsp3-mac1 [1]; read-out: perc_inhibition_mean, batch_name=ASAP-0000122-001): -5.02% | perc_inhibition_mean (SARS-CoV-2 nsp3-mac1 [2]): -5.024%

c1ccc(-c2nc(CNc3cccnc3)cs2)nc1 [ASAP-0000123]
inhibition at 50 µM (SARS-CoV-2 nsp3-mac1 [1]; read-out: perc_inhibition_mean, batch_name=ASAP-0000123-001): -9.87% | perc_inhibition_mean (SARS-CoV-2 nsp3-mac1 [2]): -9.865%

Cc1cc(NCc2ncccc2O)ncn1 [ASAP-0000124]
inhibition at 50 µM (SARS-CoV-2 nsp3-mac1 [1]; read-out: perc_inhibition_mean, batch_name=ASAP-0000124-001): -3.33% | perc_inhibition_mean (SARS-CoV-2 nsp3-mac1 [2]): -3.335%
